According to patent US11717509B2, “Blend containing carbamate compound for prevention, mitigation, or treatment of schizophrenia” (SK BIOPHARMACEUTICALS CO., LTD., priority 2017, dated 2023):

Tested on: animal model in which schizophrenia-like symptoms were induced by treatment with dizocilpine (MK-801)
Test: Social interaction animal behavior test in rats with schizophrenia-like symptoms induced by dizocilpine (MK-801)
Format: in vivo, rat (Wistar, male)
Conditions: for Social interaction (Mean ± SEM) = total time of active social interactions of sniffing, grooming, licking, mounting and crawling: male Wistar rats in pairs, 5 min observation, dizocilpine 0.1 mg/kg sc 4 h before, aripiprazole 0.003 mg/kg po and/or test compound 3 mg/kg po 1 h before, 20 pairs; for total time average of active social interactions: mean±SEM, aripiprazole 0.003 mg/kg and/or test compound 3 mg/kg po; for total time average of active social interactions / Recovery rate compared to negative control: dizocilpine 0.1 mg/kg sc; for Statistical significance compared to negative control (P < 0.05?) / Statistical significance compared to positive control (P < 0.05?): one-way ANOVA, Dunnett's test; for Statistical significance compared to negative control (P < 0.05?): negative control = dizocilpine only; for Statistical significance compared to negative control (P < 0.05?) / Statistical significance compared to positive control (P < 0.05?) / Recovery rate compared to negative control: aripiprazole 0.003 mg/kg po and/or test compound 3 mg/kg po; for Statistical significance compared to positive control (P < 0.05?): positive control = vehicle group; for Recovery rate compared to negative control: versus dizocilpine-only negative control and vehicle positive control
Description: The antipsychotic activity of the carbamate compounds of Formula 1 and aripiprazole against schizophrenia can be tested through social interaction animal behavior tests used in drug development for the negative symptoms of schizophrenia (Neill J C, Grayson B, Kiss B, Gyertyán I, Ferguson P, Adham N, Effects of cariprazine, a novel antipsychotic, on cognitive deficit and negative symptoms in a rodent model of schizophrenia symptomatology, Eur Neuropsychopharmacol. 2016 January; 26(1):3-14). […] Dizocilpine (MK-801) is an N-methyl-D-aspartate (NMDA) receptor inhibitor. In the dizocilpine-induced (MK-801-induced) social interaction animal behavior test, schizophrenia-like symptoms can be induced by administration of dizocilpine (Rung J P, Carlsson A, Ryden Markinhuhta K, Carlsson M L, (+)-MK-801 induced social withdrawal in rats; a model for negative symptoms of schizophrenia. Prog Neuropsychopharmacol Biol Psychiatry. 2005 June; 29(5):827-32). Aripiprazole, known as an atypical antipsychotic drug, inhibits schizophrenia-like symptoms in proportion to the dose of dizocilpine (Deiana S, Watanabe A, Yamasaki Y, Amada N, Kikuchi T, Stott C, Riedel G, MK-801-induced deficits in social recognition in rats: reversal by aripiprazole, but not olanzapine, risperidone, or cannabidiol. Behav Pharmacol. 2015 December; 26 (8 Spec No): 748-65).
Male rats (Wistar, 4 weeks old, Orient Bio Co., Ltd.) were purchased, divided into 2 groups in an animal breeding room and acclimatized for more than 1 week on separate shelves. The experimental animals were housed and maintained in accordance with the Laboratory Animal Care Standards of the Institutional Animal Care and Use Committee (IACUC) under conditions of light-and-darkness cycle of 12 hours, a temperature of 22 to 25° C., a relative humidity of 40-60% and free access to food and water.
Thus, an animal model is used in which schizophrenia-like symptoms can be induced by treatment of dizocilpine, an N-methyl-D-aspartate (NMDA) receptor inhibitor.
Dizocilpine (purchased from Sigma) was newly prepared by dissolving it in physiological saline used as a vehicle, and 4 hours before the experiment, a 0.1 mg/kg dose was administered subcutaneously in a volume of 1 ml per 1 kg of body weight of the rat.
Aripiprazole and the test compound were newly prepared by dissolving them in 30% polyethylene glycol 400 (Sigma) used as a vehicle. One hour before the experiment, a 0.003 mg/kg dose of aripiprazole and a 3 mg/kg dose of the test compound were administered orally in a volume of 1 ml per 1 kg of body weight of the rat.
The male rats were placed in the same observation box in pairs, allowing 1:1 interaction, and then the total time of sniffing, grooming, licking, mounting and crawling under or over the other rat which can be considered as active social interactions was measured for 5 minutes, and social interaction was evaluated based on that.
All data are expressed as mean±SEM. Statistical analysis of the total time of active social interactions between groups was performed using the GraphPad Prism ver. 5.04 program, and analyzed by one-way ANOVA (one-way analysis of variance) and Dunnett's multiple comparison test.
The recovery rate was calculated as follows.

Compound | Social interaction (Mean ± SEM) = total time of active social interactions of sniffing, grooming, licking, mounting and crawling [s] | total time average of active social interactions [s] | Statistical significance compared to negative control (P < 0.05?) | Statistical significance compared to negative control (P < 0.05?) (listed as aripiprazole) | Statistical significance compared to positive control (P < 0.05?) | Statistical significance compared to positive control (P < 0.05?) (listed as aripiprazole) | Recovery rate compared to negative control [%] | Recovery rate compared to negative control (listed as aripiprazole) [%] | Statistical significance compared to negative control (P < 0.05?) (listed as test compound) | Statistical significance compared to positive control (P < 0.05?) (listed as test compound) | Recovery rate compared to negative control (listed as test compound) [%]
O=C1CCc2ccc(OCCCCN3CCN(c4cccc(Cl)c4Cl)CC3)cc2N1 [Aripiprazole, 7-{4-[4-(2,3-dichlorophenyl)piperazin-1-yl]butoxy}-3,4-dihydroquinolin-2(1H)-one] | 57.52 ± 3.04 | 57.52 ± 3.04 | Not significant | no statistically significant difference | Significant | statistically significant difference | 23.2 | 23.2 |  |  | 
C[C@]12N[C@H](Cc3ccccc31)c1ccccc12 [Dizocilpine] | 53.86 ± 2.90 | 53.86 ± 2.90 |  |  | Significant |  | 0.0 |  |  |  | 
NC(=O)O[C@@H](Cn1ncnn1)c1ccccc1Cl [Test compound, Carbamic acid (R)-1-(2-chlorophenyl)-2-tetrazol-2-yl-ethyl ester] | 56.78 ± 2.19 | 56.78 ± 2.19 | Not significant |  | Significant |  | 18.5 |  | no statistically significant difference | statistically significant difference | 18.5
